Literature values in patent publication US12295926B1, “Modified release gamma-hydroxybutyrate formulations having improved pharmacokinetics” (Flamel Ireland Limited, priority 2022, dated 2025).
Like-named read-outs stand apart in the source and are kept apart here.

Legend:
[1] = test system: rat; conditions: 2-year
[2] = test system: mouse; conditions: 2-year
[3] = test system: rats
[4] = test system: bacteria
[5] = test system: pregnant rats; conditions: 150, 350, or 1,000 mg/kg/day
[6] = molecular target: CYP2D6 (Homo sapiens, UniProt P10635); conditions: up to 3 mM (378 mcg/mL)
CYP2D6, sequence (P10635 whole entry): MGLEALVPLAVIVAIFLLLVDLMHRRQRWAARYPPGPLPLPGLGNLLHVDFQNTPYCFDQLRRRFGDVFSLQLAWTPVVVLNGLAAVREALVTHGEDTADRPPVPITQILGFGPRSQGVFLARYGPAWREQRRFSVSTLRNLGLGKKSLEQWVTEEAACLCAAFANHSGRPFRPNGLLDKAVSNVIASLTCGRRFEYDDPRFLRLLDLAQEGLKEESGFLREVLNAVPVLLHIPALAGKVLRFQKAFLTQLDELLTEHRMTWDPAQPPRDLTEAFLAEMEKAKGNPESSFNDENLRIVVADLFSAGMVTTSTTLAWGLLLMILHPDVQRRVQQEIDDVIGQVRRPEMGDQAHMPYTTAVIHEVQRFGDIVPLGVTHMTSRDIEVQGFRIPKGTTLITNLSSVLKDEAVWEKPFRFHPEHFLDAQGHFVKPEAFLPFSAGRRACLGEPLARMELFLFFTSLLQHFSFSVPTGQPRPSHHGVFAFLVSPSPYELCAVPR

[7] = test system: CYP3A; conditions: up to 3 mM (378 mcg/mL)
[8] = test system: mammalian cells
[9] = test system: pregnant rabbits; conditions: 300, 600, or 1,200 mg/kg/day
[10] = molecular target: CYP2E1 (Homo sapiens, UniProt P05181); conditions: up to 3 mM (378 mcg/mL)
CYP2E1, sequence (P05181 whole entry): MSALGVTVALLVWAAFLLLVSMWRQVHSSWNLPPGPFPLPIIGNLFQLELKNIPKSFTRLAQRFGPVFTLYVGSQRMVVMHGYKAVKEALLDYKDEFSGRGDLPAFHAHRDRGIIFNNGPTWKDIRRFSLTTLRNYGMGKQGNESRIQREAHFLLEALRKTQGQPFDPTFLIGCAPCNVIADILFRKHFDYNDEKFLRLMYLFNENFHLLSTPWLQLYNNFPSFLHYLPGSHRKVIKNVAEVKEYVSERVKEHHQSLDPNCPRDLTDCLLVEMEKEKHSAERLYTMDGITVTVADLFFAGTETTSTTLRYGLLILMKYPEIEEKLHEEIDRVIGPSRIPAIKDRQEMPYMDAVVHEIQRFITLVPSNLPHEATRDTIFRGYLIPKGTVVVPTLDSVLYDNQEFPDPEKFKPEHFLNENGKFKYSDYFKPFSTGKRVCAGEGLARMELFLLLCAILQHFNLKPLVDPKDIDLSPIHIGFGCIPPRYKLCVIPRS

[11] = 4.5 g oral
[12] = not given; remark: listed apart in the source
[13] = molecular target: CYP2C9 (Homo sapiens, UniProt P11712); conditions: up to 3 mM (378 mcg/mL)
CYP2C9, sequence (P11712 whole entry): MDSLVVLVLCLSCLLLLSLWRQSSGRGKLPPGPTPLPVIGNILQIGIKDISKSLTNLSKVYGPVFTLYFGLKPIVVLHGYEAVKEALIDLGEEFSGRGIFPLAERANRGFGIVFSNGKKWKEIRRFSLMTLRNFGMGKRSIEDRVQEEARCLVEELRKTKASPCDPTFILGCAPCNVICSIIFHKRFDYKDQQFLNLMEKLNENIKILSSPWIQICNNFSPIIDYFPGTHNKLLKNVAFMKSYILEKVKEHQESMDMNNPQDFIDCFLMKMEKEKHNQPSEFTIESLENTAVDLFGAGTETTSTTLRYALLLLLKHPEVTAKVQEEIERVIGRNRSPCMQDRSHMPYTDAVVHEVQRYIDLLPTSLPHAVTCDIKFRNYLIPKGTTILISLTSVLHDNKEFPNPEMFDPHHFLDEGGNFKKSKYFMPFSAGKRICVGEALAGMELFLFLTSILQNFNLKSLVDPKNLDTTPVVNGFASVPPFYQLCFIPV

[14] = 6 g per day with ibuprofen 800 mg four times per day
[15] = test system: rats; conditions: highest dose tested (1,000 mg/kg/day)
[16] = molecular target: T1, CYP1A2 (Homo sapiens, UniProt P05177); conditions: up to 3 mM (378 mcg/mL)
T1 sequence (P05177 1-516): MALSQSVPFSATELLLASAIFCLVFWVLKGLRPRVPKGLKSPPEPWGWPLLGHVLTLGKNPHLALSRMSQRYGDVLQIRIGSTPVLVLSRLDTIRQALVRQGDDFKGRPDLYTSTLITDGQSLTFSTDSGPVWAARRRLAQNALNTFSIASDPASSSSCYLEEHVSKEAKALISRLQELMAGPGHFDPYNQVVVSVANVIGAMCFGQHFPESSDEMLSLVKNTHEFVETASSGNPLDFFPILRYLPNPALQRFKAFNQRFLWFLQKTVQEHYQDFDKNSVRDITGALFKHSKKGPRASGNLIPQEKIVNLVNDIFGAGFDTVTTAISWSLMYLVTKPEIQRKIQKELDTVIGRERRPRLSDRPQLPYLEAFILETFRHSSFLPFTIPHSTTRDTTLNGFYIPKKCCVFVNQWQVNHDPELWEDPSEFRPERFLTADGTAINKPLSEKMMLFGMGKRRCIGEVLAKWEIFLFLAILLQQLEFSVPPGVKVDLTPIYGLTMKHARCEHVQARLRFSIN

[17] = test system: rat; conditions: in vivo
[18] = 6 g per day with diclofenac 50 mg twice per day
[19] = test system: male and female rats; conditions: 150, 350, or 1,000 mg/kg/day
[20] = molecular target: CYP2C19 (Homo sapiens, UniProt P33261); conditions: up to 3 mM (378 mcg/mL)
CYP2C19, sequence (P33261 whole entry): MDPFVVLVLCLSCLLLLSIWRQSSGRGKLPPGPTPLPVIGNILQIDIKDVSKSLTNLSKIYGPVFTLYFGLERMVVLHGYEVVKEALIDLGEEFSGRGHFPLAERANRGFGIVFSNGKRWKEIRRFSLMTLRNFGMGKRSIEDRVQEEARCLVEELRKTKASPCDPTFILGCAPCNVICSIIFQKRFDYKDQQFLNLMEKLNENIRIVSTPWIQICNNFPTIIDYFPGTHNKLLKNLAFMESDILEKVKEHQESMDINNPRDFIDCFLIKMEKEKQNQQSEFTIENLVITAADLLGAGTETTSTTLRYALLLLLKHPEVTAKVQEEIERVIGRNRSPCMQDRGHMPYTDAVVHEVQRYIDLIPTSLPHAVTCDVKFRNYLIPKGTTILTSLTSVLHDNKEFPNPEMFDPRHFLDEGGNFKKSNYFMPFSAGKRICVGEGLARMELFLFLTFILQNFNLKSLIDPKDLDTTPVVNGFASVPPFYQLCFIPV

[21] = test system: rats; conditions: 0, 100, 300, or 900 mg/kg/day
[22] = test system: plasma proteins; conditions: 3 mcg/mL to 300 mcg/mL

Compound: O=C1CCCO1 [gamma-butyrolactone]
- Carcinogenic activity [1]: no clear evidence of carcinogenic activity
- Carcinogenic activity [2]: no clear evidence of carcinogenic activity

Compound: O=C([O-])CCCO.[Na+] [sodium oxybate, sodium 4-hydroxybutanoate]
- Plasma exposure (AUC) relative to humans at the MRHD ([3]; highest dose tested): 2 times
- Tumors ([3]; up to 1,000 mg/kg/day for 83 (males) or 104 (females) weeks): no increase in tumors
- Bacterial gene mutation [4]: negative
- Developmental toxicity [5]: no clear evidence of developmental toxicity
- Inhibition of CYP2D6 [6]: does not significantly inhibit
- Inhibition of CYP3A [7]: does not significantly inhibit
- Chromosomal aberration [8]: negative
- Apparent volume of distribution (in vivo): 0.19 to 0.384 L/kg
- Elimination half-life (in vivo): 30 to 60 min
- Unchanged drug in human urine (within 6 to 8 hours after dosing): less than 5%
- Developmental toxicity [9]: no clear evidence of developmental toxicity
- Inhibition of CYP2E1 [10]: does not significantly inhibit
- Gender differences in pharmacokinetics of GHB [11]: no gender differences
- AUC in cirrhotic patients vs normal hepatic function ([12]; 25 mg/kg oral): double
- Apparent oral clearance ([12]; Child's Class A): 0.27 L/h/kg
- Apparent oral clearance ([12]; Child's Class C): 0.246 L/h/kg
- Apparent oral clearance ([12]; healthy adults): 0.546 L/h/kg
- Inhibition of CYP2C9 [13]: does not significantly inhibit
- Systemic exposure to GHB on co-administration [14]: comparable systemic exposure to GHB
- Pre- and post-natal effects [15]: increased stillbirths and decreased offspring postnatal viability and body weight gain
- Inhibition of CYP1A2 [16]: does not significantly inhibit
- Micronucleus [17]: negative
- Systemic exposure to GHB on co-administration [18]: no significant differences in systemic exposure to GHB
- Effects on fertility [19]: no adverse effects on fertility
- Inhibition of CYP2C19 [20]: does not significantly inhibit
- Mortality in juvenile rats [21]: mortality was observed at the two highest doses tested
- Bound to plasma proteins [22]: less than 1%
